The test system of experiment [1] is Streptococcus pneumoniae. Briefly: Antibacterial activity against erythromycin-susceptible Streptococcus pneumoniae ATCC 49619.
The test system of experiment [2] is Streptococcus pneumoniae. Briefly: Antibacterial activity against erythromycin-resistant Streptococcus pneumoniae B1 encoded by erm gene.
Experiment [3] has as its system Streptococcus pneumoniae. Briefly: Antibacterial activity against erythromycin-resistant Streptococcus pneumoniae A22072 encoded by mef gene.
Experiment [4] deals with Streptococcus pneumoniae. Briefly: Antibacterial activity against erythromycin-resistant Streptococcus pneumoniae AB11 encoded by erm and mef gene.

In brackets after ≈: the same amount, converted by molar mass.

Turning to `CC[C@H]1OC(=O)[C@H](C)[C@@H](O[C@H]2C[C@@](C)(OC)[C@@H](OC(=O)NCCc3ccccc3)[C@H](C)O2)[C@H](C)[C@@H](O[C@@H]2O[C@H](C)C[C@H](N(C)C)[C@H]2O)[C@@](C)(O)C[C@@H](C)CN(C)[C@H](C)[C@H]2OC(=O)O[C@@]21C`, the MIC in the experiment on Streptococcus pneumoniae [1] came to 0.06 µg/mL (≈ 0.0651 µM); in the experiment on Streptococcus pneumoniae [2], 8 µg/mL (≈ 8.68 µM); in the experiment on Streptococcus pneumoniae [3], 0.06 µg/mL (≈ 0.0651 µM); in the experiment on Streptococcus pneumoniae [4], 2 µg/mL (≈ 2.17 µM).

In the case of `C=CCNC(=O)O[C@H]1[C@H](C)O[C@@H](O[C@H]2[C@H](C)[C@@H](O[C@@H]3O[C@H](C)C[C@H](N(C)C)[C@H]3O)[C@@](C)(O)C[C@@H](C)CN(C)[C@H](C)[C@H]3OC(=O)O[C@]3(C)[C@@H](CC)OC(=O)[C@@H]2C)C[C@@]1(C)OC`, the MIC worked out at 0.12 µg/mL (≈ 0.14 µM) against Streptococcus pneumoniae [1], 64 µg/mL (≈ 74.6 µM) against Streptococcus pneumoniae [2], 1 µg/mL (≈ 1.17 µM) in the experiment on Streptococcus pneumoniae [3] and 128 µg/mL (≈ 149 µM) in the experiment with Streptococcus pneumoniae [4].

On to `CCCCCNC(=O)O[C@@H]1[C@@H](C)N(C)C[C@H](C)C[C@](C)(O)[C@H](O[C@@H]2O[C@H](C)C[C@H](N(C)C)[C@H]2O)[C@@H](C)[C@H](O[C@H]2C[C@@](C)(OC)[C@@H](OC(=O)NCc3ccc(OC)cc3)[C@H](C)O2)[C@@H](C)C(=O)O[C@H](CC)[C@@]1(C)O`, for which the MIC against Streptococcus pneumoniae [1] is 0.06 µg/mL (≈ 0.0585 µM); with Streptococcus pneumoniae [2], 0.5 µg/mL (≈ 0.488 µM); against Streptococcus pneumoniae [3], 1 µg/mL (≈ 0.975 µM); against Streptococcus pneumoniae [4], 32 µg/mL (≈ 31.2 µM).

For `CC[C@H]1OC(=O)[C@H](C)[C@@H](O[C@H]2C[C@@](C)(OC)[C@@H](OC(=O)NCCc3ccccc3Cl)[C@H](C)O2)[C@H](C)[C@@H](O[C@@H]2O[C@H](C)C[C@H](N(C)C)[C@H]2O)[C@@](C)(O)C[C@@H](C)CN(C)[C@H](C)[C@@H](OC(=O)NCCc2ccc(O)cc2)[C@]1(C)O`, the MIC in the experiment on Streptococcus pneumoniae [1] was < 0.03 µg/mL; in the experiment with Streptococcus pneumoniae [2] it was 0.25 µg/mL (≈ 0.229 µM); against Streptococcus pneumoniae [3], 0.06 µg/mL (≈ 0.0549 µM); in the experiment with Streptococcus pneumoniae [4] it was 16 µg/mL (≈ 14.6 µM).

Consider `CC[C@H]1OC(=O)[C@H](C)[C@@H](O[C@H]2C[C@@](C)(OC)[C@@H](OC(=O)NCCc3ccccc3Cl)[C@H](C)O2)[C@H](C)[C@@H](O[C@@H]2O[C@H](C)C[C@H](N(C)C)[C@H]2O)[C@@](C)(O)C[C@@H](C)CN(C)[C@H](C)[C@@H](O)[C@]1(C)O`, for which the MIC in the experiment on Streptococcus pneumoniae [1] is < 0.03 µg/mL; against Streptococcus pneumoniae [2], 8 µg/mL (≈ 8.6 µM); with Streptococcus pneumoniae [3] it was 1 µg/mL (≈ 1.07 µM); with Streptococcus pneumoniae [4] it was 8 µg/mL (≈ 8.6 µM).

In the case of `CCCCNC(=O)O[C@H]1[C@H](C)O[C@@H](O[C@H]2[C@H](C)[C@@H](O[C@@H]3O[C@H](C)C[C@H](N(C)C)[C@H]3O)[C@@](C)(O)C[C@@H](C)CN(C)[C@H](C)[C@@H](O)[C@](C)(O)[C@@H](CC)OC(=O)[C@@H]2C)C[C@@]1(C)OC`, the MIC against Streptococcus pneumoniae [1] is < 0.03 µg/mL; with Streptococcus pneumoniae [2] it was 8 µg/mL (≈ 9.43 µM); in the experiment with Streptococcus pneumoniae [3], 1 µg/mL (≈ 1.18 µM); in the experiment on Streptococcus pneumoniae [4], 128 µg/mL (≈ 151 µM).

Regarding `CCCCCNC(=O)O[C@H]1[C@H](C)O[C@@H](O[C@H]2[C@H](C)[C@@H](O[C@@H]3O[C@H](C)C[C@H](N(C)C)[C@H]3O)[C@@](C)(O)C[C@@H](C)CN(C)[C@H](C)[C@@H](O)[C@](C)(O)[C@@H](CC)OC(=O)[C@@H]2C)C[C@@]1(C)OC`, the MIC was < 0.03 µg/mL against Streptococcus pneumoniae [1], 8 µg/mL (≈ 9.28 µM) in the experiment with Streptococcus pneumoniae [2], 0.5 µg/mL (≈ 0.58 µM) in the experiment on Streptococcus pneumoniae [3] and 32 µg/mL (≈ 37.1 µM) against Streptococcus pneumoniae [4].

For the molecule `CC[C@H]1OC(=O)[C@H](C)[C@@H](O[C@H]2C[C@@](C)(OC)[C@@H](OC(=O)NCCc3ccc(O)cc3)[C@H](C)O2)[C@H](C)[C@@H](O[C@@H]2O[C@H](C)C[C@H](N(C)C)[C@H]2O)[C@@](C)(O)C[C@@H](C)CN(C)[C@H](C)[C@H]2OC(=O)O[C@@]21C`, the MIC in the experiment on Streptococcus pneumoniae [1] is < 0.03 µg/mL; in the experiment on Streptococcus pneumoniae [2], 8 µg/mL (≈ 8.53 µM); with Streptococcus pneumoniae [3], 1 µg/mL (≈ 1.07 µM); against Streptococcus pneumoniae [4], 4 µg/mL (≈ 4.26 µM).

`CCCCCNC(=O)O[C@@H]1[C@@H](C)N(C)C[C@H](C)C[C@](C)(O)[C@H](O[C@@H]2O[C@H](C)C[C@H](N(C)C)[C@H]2O)[C@@H](C)[C@H](O[C@H]2C[C@@](C)(OC)[C@@H](OC(=O)NCCc3ccccc3Cl)[C@H](C)O2)[C@@H](C)C(=O)O[C@H](CC)[C@@]1(C)O`: the MIC is < 0.03 µg/mL in the experiment on Streptococcus pneumoniae [1], 0.5 µg/mL (≈ 0.479 µM) against Streptococcus pneumoniae [2], 0.5 µg/mL (≈ 0.479 µM) in the experiment on Streptococcus pneumoniae [3] and 16 µg/mL (≈ 15.3 µM) in the experiment on Streptococcus pneumoniae [4].

As for `CC[C@H]1OC(=O)[C@H](C)[C@@H](O[C@H]2C[C@@](C)(OC)[C@@H](OC(=O)NCc3ccc(OC)cc3)[C@H](C)O2)[C@H](C)[C@@H](O[C@@H]2O[C@H](C)C[C@H](N(C)C)[C@H]2O)[C@@](C)(O)C[C@@H](C)CN(C)[C@H](C)[C@H]2OC(=O)O[C@@]21C`, the MIC was < 0.03 µg/mL in the experiment with Streptococcus pneumoniae [1], 8 µg/mL (≈ 8.53 µM) against Streptococcus pneumoniae [2], 0.25 µg/mL (≈ 0.266 µM) in the experiment on Streptococcus pneumoniae [3] and 16 µg/mL (≈ 17.1 µM) with Streptococcus pneumoniae [4].

For `CC[C@H]1OC(=O)[C@H](C)[C@@H](O[C@H]2C[C@@](C)(OC)[C@@H](OC(=O)NCCc3ccc4c(c3)OCO4)[C@H](C)O2)[C@H](C)[C@@H](O[C@@H]2O[C@H](C)C[C@H](N(C)C)[C@H]2O)[C@@](C)(O)C[C@@H](C)CN(C)[C@H](C)[C@@H](O)[C@]1(C)O`, the MIC was < 0.03 µg/mL against Streptococcus pneumoniae [1], 8 µg/mL (≈ 8.51 µM) in the experiment with Streptococcus pneumoniae [2], 0.5 µg/mL (≈ 0.532 µM) in the experiment with Streptococcus pneumoniae [3] and 8 µg/mL (≈ 8.51 µM) against Streptococcus pneumoniae [4].

As for `CC[C@H]1OC(=O)[C@H](C)[C@@H](O[C@H]2C[C@@](C)(OC)[C@@H](OC(=O)NC3CCCCC3)[C@H](C)O2)[C@H](C)[C@@H](O[C@@H]2O[C@H](C)C[C@H](N(C)C)[C@H]2O)[C@@](C)(O)C[C@@H](C)CN(C)[C@H](C)[C@@H](O)[C@]1(C)O`, the MIC against Streptococcus pneumoniae [1] amounted to 0.12 µg/mL (≈ 0.137 µM); in the experiment on Streptococcus pneumoniae [2] it was 32 µg/mL (≈ 36.6 µM); in the experiment with Streptococcus pneumoniae [3], 8 µg/mL (≈ 9.15 µM); with Streptococcus pneumoniae [4], 128 µg/mL (≈ 146 µM).

For `CC[C@H]1OC(=O)[C@H](C)[C@@H](O[C@H]2C[C@@](C)(OC)[C@@H](OC(=O)NCCc3ccc(O)cc3)[C@H](C)O2)[C@H](C)[C@@H](O[C@@H]2O[C@H](C)C[C@H](N(C)C)[C@H]2O)[C@@](C)(O)C[C@@H](C)CN(C)[C@H](C)[C@@H](OC(=O)NCc2ccccc2)[C@]1(C)O`, the MIC against Streptococcus pneumoniae [1] was < 0.03 µg/mL; in the experiment with Streptococcus pneumoniae [2], 0.25 µg/mL (≈ 0.239 µM); in the experiment with Streptococcus pneumoniae [3] it was 0.12 µg/mL (≈ 0.115 µM); against Streptococcus pneumoniae [4] it was 128 µg/mL (≈ 122 µM).

Turning to `CC[C@H]1OC(=O)[C@H](C)[C@@H](O[C@H]2C[C@@](C)(OC)[C@@H](OC(=O)NCCc3ccc4c(c3)OCO4)[C@H](C)O2)[C@H](C)[C@@H](O[C@@H]2O[C@H](C)C[C@H](N(C)C)[C@H]2O)[C@@](C)(O)C[C@@H](C)CN(C)C(C)[C@H]2OC(=O)O[C@@]21C` (stereo partly drawn), the MIC with Streptococcus pneumoniae [1] is < 0.03 µg/mL; in the experiment on Streptococcus pneumoniae [2] it was 4 µg/mL (≈ 4.14 µM); against Streptococcus pneumoniae [3], 0.06 µg/mL (≈ 0.0621 µM); with Streptococcus pneumoniae [4], 2 µg/mL (≈ 2.07 µM).

As to `CCCNC(=O)O[C@H]1[C@H](C)O[C@@H](O[C@H]2[C@H](C)[C@@H](O[C@@H]3O[C@H](C)C[C@H](N(C)C)[C@H]3O)[C@@](C)(O)C[C@@H](C)CN(C)[C@H](C)[C@@H](O)[C@](C)(O)[C@@H](CC)OC(=O)[C@@H]2C)C[C@@]1(C)OC`, the MIC against Streptococcus pneumoniae [1] stood at 0.12 µg/mL (≈ 0.144 µM); against Streptococcus pneumoniae [2], 64 µg/mL (≈ 76.7 µM); against Streptococcus pneumoniae [3] it was 4 µg/mL (≈ 4.8 µM); in the experiment with Streptococcus pneumoniae [4], 64 µg/mL (≈ 76.7 µM).

On to `CC[C@H]1OC(=O)[C@H](C)[C@@H](O[C@H]2C[C@@](C)(OC)[C@@H](OC(=O)NCc3ccc(F)cc3)[C@H](C)O2)[C@H](C)[C@@H](O[C@@H]2O[C@H](C)C[C@H](N(C)C)[C@H]2O)[C@@](C)(O)C[C@@H](C)CN(C)[C@H](C)[C@@H](OC(=O)NCCc2ccccc2)[C@]1(C)O`, for which the MIC with Streptococcus pneumoniae [1] was < 0.03 µg/mL; with Streptococcus pneumoniae [2] it was 0.25 µg/mL (≈ 0.239 µM); in the experiment with Streptococcus pneumoniae [3], 0.06 µg/mL (≈ 0.0573 µM); in the experiment with Streptococcus pneumoniae [4], 32 µg/mL (≈ 30.6 µM).

As for `CC[C@H]1OC(=O)[C@H](C)[C@@H](O[C@H]2C[C@@](C)(OC)[C@@H](OC(=O)NCc3ccc(OC)cc3)[C@H](C)O2)[C@H](C)[C@@H](O[C@@H]2O[C@H](C)C[C@H](N(C)C)[C@H]2O)[C@@](C)(O)C[C@@H](C)CN(C)[C@H](C)[C@@H](O)[C@]1(C)O`, the MIC amounted to 0.12 µg/mL (≈ 0.132 µM) with Streptococcus pneumoniae [1], 64 µg/mL (≈ 70.2 µM) in the experiment on Streptococcus pneumoniae [2], 4 µg/mL (≈ 4.39 µM) in the experiment with Streptococcus pneumoniae [3] and 32 µg/mL (≈ 35.1 µM) against Streptococcus pneumoniae [4].
